How the values were obtained:
PKA = PKA inhibition assay; type: biochemical
Source text: (§1) Methods for obtaining A-type and P-type mediators are set out in Caro et al, 1997, and in WO98/11116 and WO98/11117. Protocols for determining characteristic IPG biological activities such as PDH activation, PKA inhibition, acetylCoA activation, fructose-1,6-bis-phosphatase activity and lipogenesis are well known in the art, e.g. as described in Caro et al ^[14].
(§2) The compounds of the invention can be tested for one or more the characteristic IPGP and/or IPG-A activities mentioned above to determine whether they will be suitable for use a IPG mimetics or antagonists. Preferred assays measure the effect of the compounds on PDH phosphatasc, PKA or lipogenesis. Protocols for these assays are provided in Caro et al ^[14].

PDH phosphatase = test: PDH activation assay; type: biochemical
Source text: as §1, §2

Row | PDH activation at 100 μM (PDH phosphatase) | Compound | PKA inhibition at 0.1 μM (PKA)
1 |  | NC1C(OC2C(O)C(O)C(O)C(O)C2OP(=O)(O)O)OC(CO)C(OC2OC(CO)C(O)C(O)C2O)C1O [RGL1022, O-α-D-galactopyranosyl-(1-4)-2-ammonio-2-deoxy-α-D-glucopyranosyl-(1-6)-D-chiro-inositol-1-phosphate] | 47%
2 |  | NC1C(OC2C(O)C(O)C(O)C(O)C2O)OC(CO)C(OC2OC(CO)C(O)C(O)C2O)C1O [RGL1014, O-α-D-Galactopyranosyl-(1-4)-(2-amino-2-deoxy-α-D-glucopyranosyl)-(1-6)-D-myo-inositol] | 2%
3 | 14% | NC1C(OC2C(O)C(O)C(O)C(O)C2O)OC(CO)C(OC2OC(CO)C(O)C(O)C2O)C1O [RGL1021, O-(α-D-galactopyranosyl)-(1-4)-(2-amino-2-deoxy-α-D-glucopyranosyl)-(1-6)-D-chiro-inositol] | 

Source: patent US6716826B2, “Compounds and their uses” (Rodaris Pharmaceuticals Limited, priority 2000, dated 2004)
